In general, TGI refers to the concentration at which net growth stops. A high value points to less potent growth arrest.

Eight compounds from PubChem BioAssay (NCI) can be followed below.

Among the test systems are A549 NSCLC; ACHN renal; BT-549 breast; COLO 205 colon; DU-145 prostate; EKVX NSCLC; HOP-62 NSCLC; HT29 colon; M14 melanoma; MALME-3M melanoma; NCI-H226 lung; NCI-H23 lung; NCI-H522 lung; RXF 393 renal; SNB-19 CNS; SNB-75 CNS; T-47D breast; TK-10 renal.
What all share (assay): DTP human tumour cell line panel, 48 h

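Compound exposure: 48 hours, 5 concentrations, 96-well plates. TGI denotes the concentration required for complete inhibition of growth.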 Bounds are passed on as bounds.

For `COc1ccc2c(c1)-c1nc(=S)n(CCCN(C)C)c3ccc([N+](=O)[O-])c(c13)N2`, the TGI in the test on A549 NSCLC amounted to 14.8 µM; in the test with ACHN renal, 14.4 µM; with BT-549 breast, 21.7 µM; with COLO 205 colon, 17.6 µM; in the test on DU-145 prostate it was 17.9 µM; in the test with EKVX NSCLC, 14.5 µM. The TGI came out at 2.46 µM in the test on HOP-62 NSCLC; 1.95 µM in the test on HT29 colon; 22.1 µM in the test on M14 melanoma; 2.33 µM in the test on MALME-3M melanoma; 24.4 µM in the test on NCI-H226 lung; 4.31 µM in the test on NCI-H23 lung. Moreover, the concentration for total growth inhibition (TGI) in the test on NCI-H522 lung is 2.98 µM; in the test with RXF 393 renal, 1.87 µM; with SNB-19 CNS it was 11 µM; in the test with SNB-75 CNS, 22.8 µM; in the test on T-47D breast, 40.8 µM; in the test on TK-10 renal it was 17.1 µM.
Take `Cc1ccc(S(=O)(=O)c2ccsc2NC(=O)C(F)(F)F)cc1`: the TGI with A549 NSCLC was over 100 µM; with ACHN renal, over 100 µM; in the test on BT-549 breast it was over 100 µM; in the test on COLO 205 colon, 24.5 µM; with DU-145 prostate, over 100 µM; in the test on EKVX NSCLC, over 100 µM. In addition, the TGI with HOP-62 NSCLC, in the test with HT29 colon, in the test on M14 melanoma, in the test on MALME-3M melanoma, in the test on NCI-H226 lung and in the test with NCI-H23 lung was over 100 µM each time. Also, the TGI in the test on NCI-H522 lung is over 100 µM; in the test with SNB-19 CNS, over 100 µM; in the test on SNB-75 CNS it was 77.8 µM; in the test with T-47D breast it was over 100 µM; in the test on TK-10 renal, over 100 µM.
On to `CN1CCN(c2ccc3[nH]c(-c4cc(O)c5c(nc(CO)n5C)c4O)nc3n2)CC1`, for which the concentration for total growth inhibition (TGI) in the test with A549 NSCLC is over 100 µM; in the test on ACHN renal it was over 100 µM; with BT-549 breast, over 100 µM; in the test with COLO 205 colon, 43.3 µM; in the test with DU-145 prostate, over 100 µM; in the test with EKVX NSCLC it was 85.8 µM. The TGI in the test with HOP-62 NSCLC was over 100 µM; in the test on HT29 colon, over 100 µM; in the test on M14 melanoma, over 100 µM; in the test on MALME-3M melanoma, 65.4 µM; in the test on NCI-H226 lung, 96.5 µM; with NCI-H23 lung it was over 100 µM. In addition, the TGI with NCI-H522 lung, in the test on RXF 393 renal, in the test on SNB-19 CNS, in the test with SNB-75 CNS and in the test on T-47D breast was over 100 µM in each case.
In the case of `COc1nc(N=P(c2ccccc2)(c2ccccc2)c2ccccc2)cc(=O)[nH]1`, the TGI in the test on A549 NSCLC, in the test on ACHN renal, in the test on BT-549 breast, in the test on COLO 205 colon, in the test with DU-145 prostate and with EKVX NSCLC was over 100 µM in each case. Further, the TGI in the test on HOP-62 NSCLC, with HT29 colon, in the test on M14 melanoma, in the test on MALME-3M melanoma, in the test with NCI-H226 lung and in the test on NCI-H23 lung was over 100 µM in each case. The TGI with NCI-H522 lung, with RXF 393 renal, with SNB-19 CNS, with SNB-75 CNS, in the test on T-47D breast and in the test with TK-10 renal was over 100 µM in each case.
As for `Clc1ccccc1-c1nc2ccc(C34CC5CC(CC(C5)C3)C4)cc2[nH]1`, the TGI was 23.4 µM with A549 NSCLC; 28.8 µM with ACHN renal; 43.5 µM in the test with BT-549 breast; over 100 µM with COLO 205 colon; over 100 µM with DU-145 prostate; over 100 µM in the test with EKVX NSCLC. Moreover, the TGI was 34.9 µM in the test on HOP-62 NSCLC; 37.9 µM in the test on HT29 colon; 70.7 µM in the test on M14 melanoma; 98.5 µM in the test with MALME-3M melanoma; over 100 µM with NCI-H226 lung; 36.4 µM in the test with NCI-H23 lung. Besides, the TGI in the test on NCI-H522 lung was determined as 43.1 µM; with RXF 393 renal it was 20.8 µM; in the test on SNB-19 CNS it was 21.6 µM; in the test on SNB-75 CNS, 21.6 µM; in the test on T-47D breast, 27.8 µM; in the test with TK-10 renal, 64.6 µM.
`O=c1[nH]nc(-c2ccccc2)n1/N=C/c1ccc([N+](=O)[O-])cc1`: the TGI in the test with A549 NSCLC, in the test on ACHN renal, in the test on BT-549 breast, with COLO 205 colon, in the test on DU-145 prostate and in the test with EKVX NSCLC was over 100 µM each time. Moreover, the concentration for total growth inhibition (TGI) with HOP-62 NSCLC is 25.8 µM; with HT29 colon, over 100 µM; in the test on M14 melanoma, over 100 µM; in the test with MALME-3M melanoma it was over 100 µM; with NCI-H226 lung it was over 75 µM; in the test on NCI-H23 lung it was over 100 µM. Moreover, the TGI in the test with NCI-H522 lung is over 100 µM; with RXF 393 renal, 28.1 µM; with SNB-19 CNS it was over 100 µM; in the test on SNB-75 CNS, 34.9 µM; in the test with T-47D breast, over 60.2 µM; in the test with TK-10 renal, 55 µM.
For `CC(=N)OC1CC2CCC1(C)C2(C)C` (stereo not given), the TGI in the test on A549 NSCLC, in the test on ACHN renal, in the test with BT-549 breast, in the test on COLO 205 colon, in the test with DU-145 prostate and with EKVX NSCLC was over 100 µM each time. In addition, the TGI in the test with HOP-62 NSCLC, in the test on HT29 colon, in the test on M14 melanoma, in the test with MALME-3M melanoma, in the test on NCI-H226 lung and in the test with NCI-H23 lung was over 100 µM each time. The TGI in the test on NCI-H522 lung, in the test on RXF 393 renal, in the test with SNB-75 CNS, in the test on T-47D breast and in the test on TK-10 renal was over 100 µM in each case.
In the case of `CC(C)NC(NC(C)C)=C(S(=O)(=O)C(F)(F)C(F)(F)C(F)(F)C(F)(F)F)S(=O)(=O)C(F)(F)C(F)(F)C(F)(F)C(F)(F)F`, the TGI with A549 NSCLC, in the test on ACHN renal, in the test with BT-549 breast, with COLO 205 colon, in the test on DU-145 prostate and in the test on EKVX NSCLC was over 100 µM in each case. Further, the TGI in the test on HOP-62 NSCLC, in the test on HT29 colon, in the test on M14 melanoma, with MALME-3M melanoma, with NCI-H226 lung and with NCI-H23 lung was over 100 µM each time. The TGI with NCI-H522 lung, in the test on SNB-19 CNS, in the test with SNB-75 CNS, with T-47D breast and in the test on TK-10 renal was over 100 µM throughout.
